This is an account of results in publication PMC12571071, “Preventing neuropathy and improving anticancer chemotherapy with a carbazole-based compound” (Science Advances, 2025).

Molecules are shown by their SMILES.

One data set relates to HeLa cells. The data set is described as follows: 1H NMR metabolomic profiling of HeLa cells. The class given is cell-based, human. Particulars: 12 μM, 2 hours. How it is done: HeLa cells (1 × 10^6) were seeded in Ø100-mm cell culture dishes and allowed to adhere for 48 hours. Cells were then treated with DMSO or 12 μM Carba1 for 2 hours at 37°C and 5% CO2. After treatment, the medium was removed, and cells were washed with PBS at R.T. before quenching with methanol at −20°C and scrapping ([70]). Dried extracts were obtained by evaporating the solvent under gentle N2 flow and stored at −80°C until analysis. For NMR, extracts were resuspended in 620 μl of 100% D2O phosphate buffer (pH 7.4), and 550 μl was transferred into 5-mm NMR tubes. Untargeted NMR analysis was performed at 27°C on a Bruker Avance IVDr spectrometer (600 MHz, ^1H resonance) with a conventional Broadband Inverse (BBI) probe. ^1H metabolic profiles were acquired using a NOESY experiment with water presaturation (Bruker pulse program noesygppr1d) and a spectral width of 11,904.792 Hz. Experimental parameters included a 10-ms mixing time, 2-s acquisition time, 3-s recycle delay, and 512 scans. The 90°s pulse length was calibrated at ~11.09 μs per sample after automatic shimming and tuning. NMR free induction decays were multiplied by an exponential function corresponding to a line broadening of 0.3 Hz before Fourier transform. […]

Another data set relates to adult mouse DRG neurons. The data set is described as follows: Axonal degeneration index in dissociated adult mouse DRG neurons. The conditions noted are these: 72 h.

Method for adult mouse DRG neurons: After 4 days in vitro (DIV), at least 30% of medium was changed, and 10 μM AraC (cytosine β-D-arabino furanoside) was added to suppress nonneuronal growth. […] Neurons were fixed with 4% paraformaldehyde (PFA), washed with PBS, permeabilized with PBS–0.01% Triton X-100 for 15 min, and blocked with PBS–10% FBS for 1 hour before being stained overnight at 4°C with neurofilament antibody. Following PBS washes, secondary antibody (goat anti-chicken Alexa Fluor 488) was applied for 2 hours at room temperature (R.T.). Following additional PBS washes, coverslips were mounted with Fluoromount-G.
Images of random fields of dissociated adult DRG neurons, immunostained with antineurofilament or anti-TUBB3 antibodies, were captured using a 20× objective lens (Olympus IX81) and a Sensicam QE monochrome camera (Cooke Corporation). Degeneration masks were generated on the basis of the method described by Gerdts et al. ([66]). Axonal degeneration was quantified by measuring the total axonal area and fragmented axonal area in the same field, using degeneration masks as shown in fig. […] Images were processed in Fiji using global autothresholding, binarization, and the particle analyzer module to detect fragments (20 to 10,000 pixels), as previously described ([17]). The degeneration index was calculated as the ratio of fragmented axonal area to total axonal area.

As for `Cc1cc(-n2cccc2)c(C)c2c1[nH]c1ccc(Cl)cc12` [Compound 1], in the data set on HeLa cells, the GTP levels result is listed as “significant increase” and the “NAD+ abundance” value is “significant decrease”. Further, the “protection against PTX-induced axonal degeneration” value in the data set with adult mouse DRG neurons (12 μM Carba1 cotreatment with 50 nM PTX) was “prevented neuronal degeneration”. Besides, in the data set on adult mouse DRG neurons (12 μM Carba1 cotreatment with 100 nM Bort), the “protection against Bort-induced neuronal fragmentation” value was “prevent neuronal fragmentation”. The “protection against Cis-induced neuronal fragmentation” value in the data set on adult mouse DRG neurons (12 μM Carba1 cotreatment with 10 μM Cis) is “prevent neuronal fragmentation”. Further, the “axonal fragmentation / degeneration, agent alone” value in the data set on adult mouse DRG neurons (DIV 12 neurons, Carba1 12 μM, PTX 50 nM, Cis 10 μM, Bort 100 nM) is “did not show significant effects on neurite fragmentation”.
